Test results published in patent publication US12043594B2, “Biphenyl derivative compound and use thereof” (EWHA UNIVERSITY—INDUSTRY COLLABORATION FOUNDATION, priority 2018, dated 2024).

How the values were obtained:
recombinant Nm23-H1 = recombinant Nm23-H1 (Homo sapiens, UniProt P15531); test: NDPK assay with recombinant Nm23-H1; type: biochemical; details: 5 ng recombinant Nm23-H1, incubated 10 minutes at room temperature, then 5 μM ADP for 1 minute
Procedure: NDPK assay was performed by incubating 5 ng of recombinant Nm23-H1 with each of test compounds (Examples 1 to 3) in NDPK assay buffer (20 mM HEPES, 3 mM MgCl2) at room temperature for 10 minutes, followed by reaction with 5 μM ADP for 1 minute.

MDA-MB-321 cells [1] = test: 3D tumor spheroid model; type: cell-based; details: various concentrations, 14 days after treatment, FIG. 4
Procedure: The cancer growth inhibitory effect of administration of the compounds according to the present disclosure was evaluated using a 3D tumor spheroid model. The 3D tumor spheroid structure has characteristics similar to solid cancer under normal stress conditions because it is not easy to transfer nutrients into cancer cells.
Specifically, 7.5 K MDA-MB-321 cells were 3D-cultured in an ultra-low attachment (ULA) 96-well plate (Perkin Elmer) under a 2.5% Matrigel™ (BD Biosciences) condition. 5 days after 3D spheroid production, the cells were treated with various concentrations of the compound (#24) of Example 1 according to the present disclosure, and 14 days after the treatment, the cancer cell growth inhibitory effect of the compound was evaluated.

MDA-MB-321 cells [2] = test: 3D tumor spheroid model, co-treatment with paclitaxel; type: cell-based; details: co-treated with paclitaxel, 14 days after treatment, FIG. 5
Procedure: In order to evaluate the effect of co-treatment with paclitaxel (PTX) which is used as a chemotherapeutic agent against triple negative breast cancer, the effect of co-treatment was evaluated using a 3D tumor spheroid model in a manner similar to Example 7.
Specifically, 7.5 K MDA-MB-321 cells were 3D-cultured in an ultra-low attachment (ULA) 96-well plate (Perkin Elmer) under a 2.5% Matrigel™ (BD Biosciences) condition. 5 days after 3D spheroid production, the cells were co-treated with the compound (B024) of Example 1 according to the present disclosure and paclitaxel in a concentration-dependent manner, and 14 days after the treatment, the cancer cell growth inhibitory effect of co-treatment was evaluated.

Chain of recombinant Nm23-H1 (P15531 whole entry): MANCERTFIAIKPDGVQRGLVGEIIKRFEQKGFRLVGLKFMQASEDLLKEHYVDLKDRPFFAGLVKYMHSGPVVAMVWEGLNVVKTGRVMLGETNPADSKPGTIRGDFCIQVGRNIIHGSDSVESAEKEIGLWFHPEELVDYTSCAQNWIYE

NDPK activity (recombinant Nm23-H1) | SMILES | cancer cell growth in the 3D tumor spheroid model (MDA-MB-321 cells [1]) | cancer cell growth in 3D tumor spheroid model, co-administration with paclitaxel (MDA-MB-321 cells [2])
2.8 | COc1ccc(-c2cccc(C(O)c3ccc(OC)c(OC)c3)c2)cc1OC (centres unmarked) [Example 1, (3′,4′-dimethoxy-[1,1′-biphenyl]-3-yl)(3,4-dimethoxyphenyl)methanol] | significantly inhibited cancer cell growth | significantly inhibited cancer cell growth even at low concentrations
1.4 | COc1ccc(Cc2cccc(-c3ccc(OC)c(OC)c3)c2)cc1OC [Example 2, 3′-(3,4-dimethoxybenzyl)-3,4-dimethoxy-1,1′-biphenyl] |  | 
1.7 | COc1ccc(C(=O)c2cccc(-c3ccc(OC)c(OC)c3)c2)cc1OC [Example 3, (3′,4′-dimethoxy-[1,1′-biphenyl]-3-yl)(3,4-dimethoxyphenyl)methanone] |  | 
